Assay results taken from patent US20210267203A1, “PESTICIDALLY ACTIVE AZOLE-AMIDE COMPOUNDS” (SYNGENTA PARTICIPATIONS AG, priority 2018, published 2021).

What was measured:
Format in all cases: in vivo
[1] = tested on: Chilo suppressalis (Striped Rice Stemborer); assay: Example B4: Chilo suppressalis (striped rice stemborer), artificial diet, L2 larvae; settings: 144 h, application rate 200 ppm, 6 days after infestation
Outline: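 L2 larvae (6-8 per well) placed on artificial diet treated with aqueous test solutions prepared from 10,000 ppm DMSO stocks, after drying. Mortality, anti-feeding and growth inhibition scored against untreated samples 6 days after infestation; control means at least one category exceeds untreated.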

[2] = tested on: Diabrotica Balteata (Corn Root Worm); assay: Example B1: Diabrotica balteata (corn root worm), maize sprouts sprayed, L2 larvae; settings: 96 h, application rate 200 ppm, 4 days after infestation, read-out: effect in at least one of the two categories (mortality or growth inhibition)
Outline: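 Maize sprouts on agar sprayed with aqueous dilutions of 10,000 ppm DMSO stocks, dried, then infested with 6–10 L2 larvae per well. Mortality and growth inhibition scored against untreated samples 4 days after infestation; rates of 200 ppm.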

[3] = tested on: Euschistus heros (Neotropical Brown Stink Bug); assay: Example B2: Euschistus heros (neotropical brown stink bug), soybean leaves sprayed, N2 nymphs; settings: 120 h, application rate 200 ppm, 5 days after infestation, read-out: effect in at least one of the two categories (mortality or growth inhibition)
Outline: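 Soybean leaves on agar sprayed with aqueous test solutions made from 10,000 ppm DMSO stocks, dried, then infested with N2 nymphs. Mortality and growth inhibition scored versus untreated samples 5 days after infestation; activity threshold at 200 ppm.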

[4] = tested on: Myzus persicae (Green Peach Aphid); assay: Example B6: Myzus persicae (green peach aphid), feeding/contact activity; settings: 144 h, application rate 200 ppm, 6 days after infestation
Description: Example B6: Myzus persicae (Green Peach Aphid):Feeding/Contact Activity
Sunflower leaf discs were placed onto agar in a 24-well microtiter plate and sprayed with aqueous test solutions prepared from 10,000 ppm DMSO stock solutions. After drying, the leaf discs were infested with an aphid population of mixed ages. The samples were assessed for mortality 6 days after infestation.

[5] = tested on: Myzus persicae (Green Peach Aphid); assay: Example B13: activity against Myzus persicae (green peach aphid), 96-well sucrose solution; settings: 120 h, application rate 50 ppm, 5 days after infestation
Outline: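 Compounds, from 10,000 ppm DMSO stocks, mixed into sucrose solution in wells under stretched Parafilm, with aphids placed on the membrane in an inverted feeding setup. Mortality scored 5 days after infestation.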

[6] = tested on: Spodoptera littoralis (Egyptian Cotton Leaf Worm); assay: Example B10: Spodoptera littoralis (Egyptian cotton leaf worm), uptake by lettuce roots from agar, eggs; settings: 144 h, test rate 12.5 ppm, lettuce root uptake, 6 days after infestation, read-out: effect in at least one of the three categories (mortality, anti-feeding, or growth inhibition)
Source text: Example B10: Spodoptera littoralis (Egyptian Cotton Leaf Worm)
Test compounds were applied by pipette from 10,000 ppm DMSO stock solutions into 24-well plates and mixed with agar. Lettuce seeds were placed onto the agar and the multi well plate was closed by another plate which contained also agar. After 7 days the compound was absorbed by the roots and the lettuce grew into the lid plate. The lettuce leaves were then cut off into the lid plate. Spodoptera eggs were pipetted through a plastic stencil onto a humid gel blotting paper and the lid plate was closed with it. The samples were assessed for mortality, anti-feedant effect and growth inhibition in comparison to untreated samples 6 days after infestation.
The following compounds gave an effect of at least 80% in at least one of the three categories (mortality, anti-feeding, or growth inhibition) at a test rate of 12.5 ppm: […]

[7] = tested on: Plutella xylostella (Diamond Back Moth); assay: Example B5: Plutella xylostella (diamond back moth), artificial diet, 24-well, eggs; settings: 192 h, application rate 200 ppm, 8 days after infestation, read-out: effect in at least one of the two categories (mortality or growth inhibition)
Outline: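 Artificial diet in 24-well plates treated with aqueous dilutions of 10,000 ppm DMSO stocks, dried, then infested with Plutella eggs. Mortality and growth inhibition scored against untreated samples 8 days after infestation; activity rated at 200 ppm application rate.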

[8] = tested on: Thrips tabaci (Onion Thrips); assay: Example B12: Thrips tabaci (onion thrips), feeding/contact activity; settings: 144 h, application rate 200 ppm, mixed ages, 6 days after infestation
Description: Example B12: Thrips tabaci (Onion Thrips) Feeding/Contact Activity
Sunflower leaf discs were placed on agar in 24-well microtiter plates and sprayed with aqueous test solutions prepared from 10,000 ppm DMSO stock solutions. After drying the leaf discs were infested with a thrips population of mixed ages. The samples were assessed for mortality 6 days after infestation.

[9] = tested on: Myzus persicae (Green Peach Aphid); assay: Example B7: Myzus persicae (green peach aphid), systemic activity; settings: 144 h, test rate 24 ppm, pea seedling roots in test solution, 6 days
Description: Example B7: Myzus persicae (Green Peach Aphid), Systemic Activity
Roots of pea seedlings infested with an aphid population of mixed ages were placed directly into aqueous test solutions prepared from 10,000 DMSO stock solutions. The samples were assessed for mortality 6 days after placing seedlings into test solutions.

[10] = tested on: Plutella xylostella (Diamondback Moth); assay: Example B14: activity against Plutella xylostella (diamondback moth), 96-well artificial diet; settings: 216 h, application rate 500 ppm, 9 days after infestation
Outline: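 Diet in 96-well plates was treated with aqueous dilutions of 10,000 ppm DMSO stocks, dried, and infested with 30 eggs per well via a netted lid; hatching L1 larvae fed on the diet. Mortality scored 9 days after infestation.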

[11] = tested on: Spodoptera littoralis (Egyptian Cotton Leaf Worm); assay: Example B9: Spodoptera littoralis (Egyptian cotton leaf worm), cotton leaf discs sprayed, L1 larvae; settings: foliar, 72 h, application rate 200 ppm, 3 days after infestation
Outline: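 Leaf discs on agar sprayed with aqueous dilutions from 10,000 ppm DMSO stock, dried, then infested with five L1 larvae. Mortality, anti-feeding and growth inhibition scored against untreated samples 3 days after infestation; control counted when any category exceeds untreated.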

[12] = tested on: Myzus persicae (Green Peach Aphid); assay: Example B8: Myzus persicae (green peach aphid), intrinsic activity; settings: 120 h, test rate 12 ppm, sucrose solution, 24-well, 5 days after infestation
Outline: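 Compounds diluted from 10,000 ppm DMSO stock were mixed with sucrose solution under stretched Parafilm in a sachet feeding setup, with aphid-infested pea seedlings placed on the membrane. Mortality was scored 5 days after infestation.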

[13] = tested on: Frankliniella occidentalis (Western Flower Thrips); assay: Example B3: Frankliniella occidentalis (western flower thrips), feeding/contact activity; settings: 168 h, application rate 200 ppm, mixed ages, 7 days after infestation
Description: Example B3: Frankliniella occidentalis (Western Flower Thrips):Feeding/Contact Activity
Sunflower leaf discs were placed on agar in 24-well microtiter plates and sprayed with aqueous test solutions prepared from 10,000 DMSO stock solutions. After drying the leaf discs were infested with a Frankliniella population of mixed ages. The samples were assessed for mortality 7 days after infestation.

CC(c1ncnn1-c1ncccn1)N(CC1CC1)C(=O)c1cc(C(F)(F)F)cc(S(=O)(=O)C(F)(F)F)c1 (stereo not drawn) [P89, N-(cyclopropylmethyl)-N-[1-(2-pyrimidin-2-yl-1,2,4-triazol-3-yl)ethyl]-3-(trifluoromethyl)-5-(trifluoromethylsulfonyl)benzamide]
≥ 80%: percent control (mortality, anti-feedant effect or growth inhibition) at 200 ppm [1] | percent effect (mortality or growth inhibition) at 200 ppm [2] | percent effect (mortality or growth inhibition) at 200 ppm [3] | mortality at 200 ppm [4] | mortality at 50 ppm [5] | percent effect (mortality, anti-feeding or growth inhibition) at 12.5 ppm [6] | percent effect (mortality or growth inhibition) at 200 ppm [7] | mortality at 200 ppm [8] | mortality at 24 ppm [9] | mortality at 500 ppm [10] | percent control (mortality, anti-feedant effect or growth inhibition) at 200 ppm [11] | mortality at 12 ppm [12]

CC(c1ncnn1-c1ncccn1)N(CC1CC1)C(=O)c1cc([S+]([O-])C(F)(F)F)cc(C(F)(F)F)c1 (stereo not drawn) [P26, N-(cyclopropylmethyl)-N-[1-(2-pyrimidin-2-yl-1,2,4-triazol-3-yl)ethyl]-3-(trifluoromethyl)-5-(trifluoromethylsulfinyl)benzamide]
≥ 80%: percent control (mortality, anti-feedant effect or growth inhibition) at 200 ppm [1] | percent effect (mortality or growth inhibition) at 200 ppm [2] | percent effect (mortality or growth inhibition) at 200 ppm [3] | mortality at 200 ppm [4] | mortality at 50 ppm [5] | percent effect (mortality, anti-feeding or growth inhibition) at 12.5 ppm [6] | percent effect (mortality or growth inhibition) at 200 ppm [7] | mortality at 200 ppm [8] | mortality at 24 ppm [9] | mortality at 500 ppm [10] | percent control (mortality, anti-feedant effect or growth inhibition) at 200 ppm [11] | mortality at 12 ppm [12]

CC(c1ncnn1-c1ncccn1)N(CC1CC1)C(=O)c1cc(C(F)(F)F)cc(C(C)(C)C#N)c1 (stereo not drawn) [P35, 3-(1-cyano-1-methyl-ethyl)-N-(cyclopropylmethyl)-N-[1-(2-pyrimidin-2-yl-1,2,4-triazol-3-yl)ethyl]-5-(trifluoromethyl)benzamide]
≥ 80%: percent effect (mortality or growth inhibition) at 200 ppm [2] | percent effect (mortality or growth inhibition) at 200 ppm [3] | mortality at 50 ppm [5] | percent effect (mortality or growth inhibition) at 200 ppm [7] | mortality at 200 ppm [8] | mortality at 24 ppm [9] | mortality at 500 ppm [10] | percent control (mortality, anti-feedant effect or growth inhibition) at 200 ppm [11] | mortality at 12 ppm [12]

CC(c1ncnn1-c1ncccn1)N(CC1CC1)C(=O)c1cc(C(F)(F)F)cc(C2(C#N)CC2)c1 (stereo not drawn) [P46, 3-(1-cyanocyclopropyl)-N-(cyclopropylmethyl)-N-[1-(2-pyrimidin-2-yl-1,2,4-triazol-3-yl)ethyl]-5-(trifluoromethyl)benzamide]
≥ 80%: percent effect (mortality or growth inhibition) at 200 ppm [2] | percent effect (mortality or growth inhibition) at 200 ppm [3] | mortality at 200 ppm [4] | mortality at 50 ppm [5] | percent effect (mortality or growth inhibition) at 200 ppm [7] | mortality at 200 ppm [8] | mortality at 24 ppm [9] | mortality at 500 ppm [10] | percent control (mortality, anti-feedant effect or growth inhibition) at 200 ppm [11] | mortality at 12 ppm [12]

Cc1nc(C(C)NC(=O)c2cc(C(F)(F)F)cc(C(C)(C)C#N)c2)n(-c2ncccn2)n1 (stereo not drawn) [P82, 3-(1-cyano-1-methyl-ethyl)-N-[1-(5-methyl-2-pyrimidin-2-yl-1,2,4-triazol-3-yl)ethyl]-5-(trifluoromethyl)benzamide]
≥ 80%: percent control (mortality, anti-feedant effect or growth inhibition) at 200 ppm [1] | percent effect (mortality or growth inhibition) at 200 ppm [2] | percent effect (mortality or growth inhibition) at 200 ppm [3] | mortality at 200 ppm [4] | percent effect (mortality or growth inhibition) at 200 ppm [7] | mortality at 24 ppm [9] | percent control (mortality, anti-feedant effect or growth inhibition) at 200 ppm [11] | mortality at 12 ppm [12]

C[C@H](NC(=O)c1cc(C2CC2)cc(C(F)(F)F)c1)c1ncnn1-c1ncccn1 [P72, 3-cyclopropyl-N-[(1S)-1-(2-pyrimidin-2-yl-1,2,4-triazol-3-yl)ethyl]-5-(trifluoromethyl)benzamide]
≥ 80%: percent control (mortality, anti-feedant effect or growth inhibition) at 200 ppm [1] | percent effect (mortality or growth inhibition) at 200 ppm [2] | percent effect (mortality or growth inhibition) at 200 ppm [3] | mortality at 200 ppm [4] | percent effect (mortality or growth inhibition) at 200 ppm [7] | percent control (mortality, anti-feedant effect or growth inhibition) at 200 ppm [11] | mortality at 12 ppm [12] | mortality at 200 ppm [13]

Cc1nc(C(C)NC(=O)c2cc(C(F)(F)F)cc(C3(C#N)CC3)c2)n(-c2ncc(Br)cn2)n1 (stereo not drawn) [P78, N-[1-[2-(5-bromopyrimidin-2-yl)-5-methyl-1,2,4-triazol-3-yl]ethyl]-3-(1-cyanocyclopropyl)-5-(trifluoromethyl)benzamide]
≥ 80%: percent control (mortality, anti-feedant effect or growth inhibition) at 200 ppm [1] | percent effect (mortality or growth inhibition) at 200 ppm [2] | percent effect (mortality or growth inhibition) at 200 ppm [3] | percent effect (mortality or growth inhibition) at 200 ppm [7] | percent control (mortality, anti-feedant effect or growth inhibition) at 200 ppm [11] | mortality at 12 ppm [12] | mortality at 200 ppm [13]
